Measurements published in patent US12691070B2, “Cationic lipids and preparation method thereof” (RiboX Therapeutics HK Limited, priority 2023, dated 2026).

Columns and labels:
RAW 264.7 cells [1] = assay: In vitro expression of firefly-luciferase, RAW 264.7; assay type: cell-based; details: cirRNA (SEQ ID NO: 1) LNPs; firefly-luciferase luminescence; RAW 264.7 cells
Outline: (§1)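 Cells were transfected with firefly-luciferase-encoding RNA-LNPs at 100 ng/mL. After 72 hours they were washed and lysed, and luciferase activity in the lysates was read by luminometry.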

RAW 264.7 cells [2] = assay: In vitro toxicity (CellTiter-Glo cell viability), RAW 264.7; assay type: cell-based; details: cirRNA (SEQ ID NO: 1) LNPs; RAW 264.7 cells;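 also: percent of untreated cells luminescence signal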
Outline: (§2)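 First, cells receive RNA-LNPs at 1 μg/mL by transfection. After 72 hours, CellTiter-Glo reagent is added per kit protocol. Luminescence is then read and converted to cell viability.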

Hep G2 cells [3] = assay: In vitro toxicity (CellTiter-Glo cell viability), Hep G2; assay type: cell-based; details: cirRNA (SEQ ID NO: 1) LNPs; Hep G2 cells;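 also: percent of untreated cells luminescence signal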
Outline: as §2

[4] = LNP size and polydispersity index (PDI) by dynamic light scattering; assay type: physicochemical; details: LNP with cirRNA (SEQ ID NO: 1); for Size: in nm (unit assumed)
Outline: (§3)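 LNPs of ionizable lipid/DSPC/cholesterol/DMG-PEG 2000 (50:10:38.5:1.5) made by microfluidic mixing of luciferase circRNA or mRNA in pH 4.5 acetate with lipids in ethanol (3:1, 12 ml/min), ionizable lipid:nucleotide 15 or 6, then dialyzed against PBS. Size, PDI (DLS) and zeta potential on Zetasizer; encapsulation by Ribogreen ± Triton X-100.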

[5] = LNP zeta potential (Zetasizer); assay type: physicochemical; details: LNP with cirRNA (SEQ ID NO: 1)
Outline: as §3

[6] = RNA encapsulation efficacy by Quant-IT Ribogreen kit; assay type: physicochemical; details: LNP with cirRNA (SEQ ID NO: 1)
Outline: as §3

BALB/C mice = assay: In vivo expression, whole-body luminescence (IVIS); details: cirRNA (SEQ ID NO: 1) LNPs, BALB/C mice
Description: 6-8 week old, female BALB/C mice were injected with 0.05 mg*kg-1 of RNA-LNPs encoding for firefly-luciferase by intravenous injection. At 6 hours post injection, animals were intraperitoneally injected with 15 mg/ml of Luciferin substrate and whole-body luminescence was determined by a bioluminescent in vivo imaging system (IVIS).

Hep G2 cells [7] = assay: In vitro expression of firefly-luciferase, Hep G2; assay type: cell-based; details: cirRNA (SEQ ID NO: 1) LNPs; firefly-luciferase luminescence; Hep G2 cells
Outline: as §1

SMILES	In vitro Expression RAW (RAW 264.7 cells [1])	In vitro Viability RAW (RAW 264.7 cells [2])	In vitro Viability HepG2 (Hep G2 cells [3])	PDI [4]	Size [4]	Zeta (mV) [5]	Encapsulation Efficiency % [6]	In vivo Expression (Whole Body) (BALB/C mice)	In vitro Expression HepG2 (Hep G2 cells [7])
CCCCCCCCCC(=O)OCCCCCCCN(CCCCCCCCOC(=O)C(CCCCCC)CCCCCCCC)CCOC(=O)NCc1ncc[nH]1 (stereo not drawn) [Lipid 198]	8.39E+04	90%	104%	0.2199	64.1	−3.471 mV	94%	9.90E+06	2.19E+04
CCCCCCCCCC(=O)OCCCCCCCN(CCCCCCCCOC(=O)C(CCCCCC)CCCCCCCC)CCCOC(=O)NCCCn1ccnc1 (stereo not drawn) [Lipid 356]	1.06E+04	84%	112%	0.423	336.5	−0.5834 mV	77%	5.24E+05	1.96E+03
CCCCC/C=C\CCOC(=O)CCCCCN(CCCCCCCCOC(=O)C(CCCCCC)CCCCCCCC)CCOC(=O)NCCN1CCCCC1 (stereo not drawn) [Lipid 192]	8.42E+03	86%	94%	0.1344	76.52	−7.77 mV	92%	8.52E+07	4.18E+04
CCCCCCCCC(CCCCCCCC)OC(=O)CCCCCCCN(CCCCCCCCOC(=O)C(CCCCCC)CCCCCCCC)CCCNCCN(C)C (stereo not drawn) [Lipid 363]	9.15E+03	65%	112%	0.2547	130.7	5.356 mV	92%	2.22E+06	3.17E+05
CCCCCCCCCCC(CCCCCCCC)COC(=O)CCCCCN(CCCCCC(=O)OCC(CCCCCCCC)CCCCCCCCCC)CCCOC(=O)NCc1ncc[nH]1 (stereo not drawn) [Lipid 365]	3.87E+04	88%	109%	0.1303	72.69	−2.341 mV	92%	1.32E+08	3.17E+05
CCCCCCCCCC(=O)OCCCCCCCCN(CCCCCCCCOC(=O)CCCCCCCCC)CCOC(=O)NCCN(C)C [Lipid 202]	3.35E+02	92%	94%	0.1932	60.75	16.36 mV	93%	2.33E+05	2.49E+05
CCCCCCCC/C=C\CCCCCCCCN(CCCCCCCCOC(=O)C(CCCCCC)CCCCCCCC)CCOC(=O)NCCCN(C)C (stereo not drawn) [Lipid 216]	3.31E+05	75%	76%	0.4093	75.92	11.61 mV	96%	1.34E+06	1.59E+07
CCCCCCCCCC(=O)OCCCCCCCN(CCCCCCCCOC(=O)C(CCCCCC)CCCCCCCC)CCCOC(=O)NCCCN(CC)CC (stereo not drawn) [Lipid 361]	2.97E+03	4%	114%	0.438	91.91	8.107 mV	88%	1.10E+06	1.62E+05
CCCCCCCCC(CCCCCC)C(=O)OCCCCCCCCN(CCCCCCCCOC(=O)C(CCCCCC)CCCCCCCC)CCCNCCCN(CC)CC (stereo not drawn) [Lipid 385]	1.37E+04	80%	74%	0.2458	159	11.28 mV	94%	1.79E+06	1.31E+05
CCCCCCOC(=O)CCCCCCCCCCN(CCCCCCCCCCC(=O)OCCCCCC)CCOC(=O)NCCN1CCN(C)CC1 [Lipid 138, dihexyl 11,11′-((2-(((2-(4-methylpiperazin-1-yl)ethyl)carbamoyl)oxy)ethyl)azanediyl)diundecanoate]	9.75E+01	10%	12%	0.1821	130.8	15.82 mV	96%	1.30E+05	6.75E+01
CCCCCCCCCCCOC(=O)CCCCCN(CCCCCCCC(=O)OC(CCCCCCCC)CCCCCCCC)CCOC(=O)NCCN1CCOCC1 [Lipid 161]	6.74E+03	81%	95%	0.08727	58.97	−10.23 mV	75%	1.88E+07	4.62E+04
CCCCCCCCCCC(CCCCCCCC)COC(=O)CCCCCN(CCCCCC(=O)OCC(CCCCCCCC)CCCCCCCCCC)CCOC(=O)NCCN1CCOCC1 (stereo not drawn) [Lipid 174]	1.30E+04	92%	89%	0.0911	57.29	−4.35 mV	89%	5.15E+07	1.56E+05
CCCCCCCC/C=C\CCCCCCCCN(CCCCCCCCOC(=O)C(CCCCCC)CCCCCCCC)CCOC(=O)NCCN1CCN(C)CC1 (stereo not drawn) [Lipid 214]	1.20E+05	87%	83%	0.304	76.43	5.906 mV	96%	1.18E+06	3.88E+06
CCCCC/C=C\CCOC(=O)CCCCCN(CCCCCCCCOC(=O)C(CCCCCC)CCCCCCCC)CCOC(=O)NCc1ncc[nH]1 (stereo not drawn) [Lipid 185]	5.29E+04	85%	90%	0.102	69.89	−1.137 mV	88%	1.22E+08	9.12E+03
CCCCC/C=C\C/C=C\CCCCCCCCN(CCCCCCCC(=O)OC(CCCCCCCC)CCCCCCCC)CCCOC(=O)NCCN1CCN(C)CC1 [Lipid 273]	1.35E+06	121%	93%	0.257	88.34	1.543 mV	95%	5.16E+06	6.48E+06
CCCCC/C=C\C/C=C\CCCCCCCCN(CCCCCC(=O)OCC(CCCCCCCC)CCCCCCCCCC)CCOC(=O)NCCN1CCN(C)CC1 (stereo not drawn) [Lipid 78, 2-octyldodecyl 6-((2-(((2-(4-methylpiperazin-1-yl)ethyl)carbamoyl)oxy)ethyl)((9Z,12Z)-octadeca-9,12-dien-1-yl)amino)hexanoate]	7.80E+03	106%	113%	0.0918	110	9.83 mV	100%	4.92E+05	1.31E+05
CCCCC/C=C\C/C=C\CCCCCCCCN(CCCCCCCC/C=C\C/C=C\CCCCC)CCOC(=O)NCc1ncc[nH]1 [Lipid 39, 2-(di((9Z,12Z)-octadeca-9,12-dien-1-yl)amino)ethyl ((1H-imidazol-2-yl)methyl)carbamate]	2.58E+03	96%	90%	0.07	169.5	−3.335 mV	91%	1.15E+04	8.11E+02
CCCCCCCCCC(=O)OCCCCCCCN(CCCCCCCCOC(=O)C(CCCCCC)CCCCCCCC)CCCOC(=O)NCCN1CCN(C)CC1 (stereo not drawn) [Lipid 362]	1.99E+03	0%	106%	0.3944	88.25	11.87 mV	89%	1.68E+06	3.82E+04
